Experimental data reported in publication PMC3578785, “Improved BM212 MmpL3 Inhibitor Analogue Shows Efficacy in Acute Murine Model of Tuberculosis Infection” (PLoS ONE, 2013).
In brackets after ≈: the same amount, converted by molar mass. Read-outs that look alike come from different tables or passages of the source.

What was measured:
in vitro [1] = type: in vitro ADME, mouse; details: pH 7.4; for half-life: mouse microsomes, read-out: t1/2 in mouse microsomes; for Cli mouse: 0.5 µM
Method: (§1) Protocol S6. Microsomal fraction stability experimental procedure.
(§2) Pooled mouse and human liver microsomes are purchased from Xenotech. Microsomes (final protein concentration 0.5 mg/mL, MgCl2 (final concentration = 5 mM) and test compound (final substrate concentration = 0.5 µM; final DMSO concentration = 0.5%) in 0.1M phosphate buffer pH 7.4 were pre-incubated at 37°C prior to the addition of NADPH (final concentration = 1 mM) to initiate the reaction. The final incubation volume was 600 µL. A control incubation was included for each compound tested where 0.1 M phosphate buffer pH 7.4 is added instead of NADPH (minus NADPH). One control compound was included with each species. All incubations were performed singularly for each test compound. Each compound was incubated for 30 minutes and samples (90 µL) of incubate were taken at 0, 5, 15, 20 and 30 min. The control (minus NADPH) was sampled at 30 min only. The reactions were stopped by the addition of sample to 200 µL Acetonitrile:Methanol 3:1 containing internal standard. The terminated samples were centrifuged at 2.500 rpm for 20 min at 4°C to precipitate the protein.
(§3) Quantitative Analysis: following protein precipitation, the samples were analyzed using specific […]
(§4) Data Analysis: from a plot of ln peak area ratio (compound peak area/internal standard peak area) against time, the gradient of the line was determined. Subsequently, half-life and intrinsic clearance were calculated using the equations below:
(§5) Elimination rate constant (k) = (- gradient)
(§6) Half life (t1/2) (min) = […]
(§7) Intrinsic Clearance (CLint) (mL/min/g protein) = […] where V=Incubation volume mL/g microsomal protein.

[2] = biological target: human serum albumin (HSA) (Homo sapiens, UniProt P02768); type: in vitro ADME; details: human, pH 7.4
Method: Standard physical chemical property determination methods were used. Please see the Supporting Information for details.
Protocol S4. Determination of compounds binding to human serum albumin (HSA).
The determination of compounds binding to human serum albumin (HSA) was carried out by retention time measurements using immobilized HSA HPLC columns obtained from Chiral Technologies Ltd, France. The column dimensions were 50x3 mm. The mobile phase was 50 mM ammonium acetate buffer pH 7.4 and HPLC grade 2-propanol. HPLC Method: flow rate 1.8 ml/min applying 2.5 min 2-propanol gradient up to 30%. From 2.5 min to 4.5 min the 2-propanol concentration in the mobile phase was kept at 30%. From 4.5 min to 4.6 min, the 2-propanol concentration was decreased to 0% and kept like that until the end of the gradient run which was 6 min. A calibration set of compounds was first analyzed for which plasma protein binding data were available: Warfarin, Nizatidine, Bromazepam, Carbamazepine, Budesonide, Nicardipine, Indomethacine, Piroxicam, Naproxen. The calculation of the HSA binding data expressed as %HSA was carried out as described previously.

in vitro [3] = details: plasma, pH 7.4
M. tuberculosis H37Rv = assay: microbe, parasite or virus in culture; type: cell-based; details: Mycobacterium tuberculosis, aerobic conditions
in vitro [4] = details: African green monkey
in vivo = details: female, C57BL/6, mouse, po
H37Rv = system: H37Rv; parameters: species or system mice; details: mouse, in vivo, po
HepG2 cells = details: human, 48 h
in vitro [5] = type: in vitro ADME, human; details: pH 7.4; for Cli human: 0.5 µM; for half-life: human microsomes, read-out: t1/2 in human microsomes
Method: as §1, §2, §3, §4, §5, §6, §7

[6] = system: M. tuberculosis H37Rv bacilli; details: cited from earlier work

Chain of human serum albumin (HSA) (P02768 25-609): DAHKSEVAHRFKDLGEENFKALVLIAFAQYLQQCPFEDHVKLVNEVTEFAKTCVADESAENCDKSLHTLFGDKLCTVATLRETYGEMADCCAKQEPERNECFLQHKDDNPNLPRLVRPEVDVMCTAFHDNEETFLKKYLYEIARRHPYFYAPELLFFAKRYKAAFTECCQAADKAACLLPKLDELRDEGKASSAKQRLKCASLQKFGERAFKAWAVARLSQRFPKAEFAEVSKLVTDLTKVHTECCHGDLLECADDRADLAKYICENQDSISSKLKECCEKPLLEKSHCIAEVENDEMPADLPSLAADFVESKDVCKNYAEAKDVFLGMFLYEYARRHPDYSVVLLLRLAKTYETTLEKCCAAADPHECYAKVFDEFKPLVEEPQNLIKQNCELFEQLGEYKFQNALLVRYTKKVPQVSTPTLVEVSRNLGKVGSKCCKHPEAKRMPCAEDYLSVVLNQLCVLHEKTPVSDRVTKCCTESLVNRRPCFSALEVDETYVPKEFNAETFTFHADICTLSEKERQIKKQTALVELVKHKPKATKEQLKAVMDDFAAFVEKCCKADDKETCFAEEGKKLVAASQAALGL

Molecule	melting point	half-life (in vitro [1])	HSA (%) binding [2]	fraction unbound at 1 µM (in vitro [3])	MIC (M. tuberculosis H37Rv)	CC50 at 72 h (in vitro [4])	chromatographic logD (physchem; pH 2)	chromatographic logD (physchem; pH 7.4)	chromatographic logD (physchem; pH 10.5)	Tox50, cytotoxicity in HepG2 cells (HepG2 cells)	Cli human (in vitro [5])	half-life (in vitro [5])	Cli mouse (in vitro [1])	also measured
Cc1c(CN2CCOCC2)cc(-c2ccc(C(C)C)cc2)n1-c1ccc(F)cc1 [Compound 9, 2-Methyl-3-[(morpholin-4-yl)-methyl]-5-[4-(i-propyl)phenyl]-1-[4-(fluoro)phenyl]-1H-pyrrole]	120 °C	> 30 min	97.71%	< 0.001	0.12 µM (≈ 0.0471 µg/mL)	50.1 µM	1.47	4.57	4.95	15.3 µM	<0.5 mL/min/g	> 30 min	–	AUC(0-inf) (in vivo; 50 mg/kg): 11.6 µM·h; Cmax (in vivo; 50 mg/kg): 1620 nM; Tmax (in vivo; 50 mg/kg): 60 min; half-life (in vivo; 50 mg/kg): 60 min; ED99 (dose that reduces 2 logs bacterial burden in the lungs of mice; 95% confidence interval in parenthesis) (H37Rv): 49 (43–54) mg/kg
AU1235	–	–	–	–	–	–	–	–	–	–	–	–	–	activity against M. tuberculosis H37Rv bacilli in anaerobic models ([6]; ref [17]-[19]): neither AU1235 nor SQ109 gave detectable activity
Cc1c(CN2CCOCC2)cc(-c2ccc(C(C)C)cc2)n1-c1ccc(Cl)cc1 [Compound 13, 2-Methyl-3-[(morpholin-4-yl)-methyl]-5-[4-(i-propyl)phenyl]-1-[4-(chloro)phenyl]-1H-pyrrole]	135 °C	> 30 min	97.94%	< 0.001	0.6 µM (≈ 0.245 µg/mL)	241 µM	1.56	5.13	5.45	10.0 µM	0.71 mL/min/g	> 30 min	–	–
CCCc1ccc(-c2cc(CN3CCOCC3)c(C)n2-c2ccc(Cl)cc2)cc1 [Compound 12, 2-Methyl-3-[(morpholin-4-yl)-methyl]-5-[4-(propyl)phenyl]-1-[4-(chloro)phenyl]-1H-pyrrole]	113 °C	> 30 min	98.00%	< 0.001	2 µM (≈ 0.818 µg/mL)	> 256 µM	1.61	5.3	5.59	13.3 µM	<0.5 mL/min/g	> 30 min	–	–
CCCc1ccc(-c2cc(CN3CCOCC3)c(C)n2-c2ccc(OC)cc2)cc1 [Compound 20, 2-Methyl-3-[(morpholin-4-yl)-methyl]-5-[4-(propyl)phenyl]-1-[4-(methoxy)phenyl]-1H-pyrrole]	107 °C	10.9 min	97.17%	< 0.001	0.3 µM (≈ 0.121 µg/mL)	> 256 µM	1.4	4.46	4.93	14.3 µM	0.61 mL/min/g	> 30 min	5.75 mL/min/g	–
CCc1ccc(-c2cc(CN3CCOCC3)c(C)n2-c2ccc(Cl)cc2)cc1 [Compound 11, 2-Methyl-3-[(morpholin-4-yl)-methyl]-5-[4-(ethyl)phenyl]-1-[4-(chloro)phenyl]-1H-pyrrole]	134 °C	25 min	97.74%	< 0.001	0.2 µM (≈ 0.079 µg/mL)	> 256 µM	1.42	4.77	5.16	8.8 µM	0.52 mL/min/g	> 30 min	2.83 mL/min/g	–
CC(C)=CCC/C(C)=C/CNCCNC1C2CC3CC(C2)CC1C3 (centres unmarked) [SQ109]	–	–	–	–	–	–	–	–	–	–	–	–	–	activity against M. tuberculosis H37Rv bacilli in anaerobic models [6]: neither AU1235 nor SQ109 gave detectable activity
CSc1ccc(-c2cc(CN3CCOCC3)c(C)n2-c2ccc(F)cc2)cc1 [Compound 7, 2-Methyl-3-[(morpholin-4-yl)-methyl]-5-[4-(methylthio)phenyl]-1-[4-(fluoro)phenyl]-1H-pyrrole]	134 °C	9.27 min	97.00%	0.004	0.6 µM (≈ 0.238 µg/mL)	44.3 µM	1.13	3.82	4.24	32.9 µM	0.56 mL/min/g	> 30 min	7.30 mL/min/g	–
COc1ccc(-c2cc(CN3CCOCC3)c(C)n2-c2ccc(C)cc2)cc1 [Compound 22, 2-Methyl-3-[(morpholin-4-yl)-methyl]-5-[4-(methoxy)phenyl]-1-[4-(methyl)phenyl]-1H-pyrrole]	115 °C	< 5 min	95.64%	0.008	0.6 µM (≈ 0.226 µg/mL)	50.1 µM	1.02	3.57	4.11	11.3 µM	1.14 mL/min/g	> 30 min	12.62 mL/min/g	–
Cc1ccc(-c2cc(CN3CCOCC3)c(C)n2-c2ccc(Cl)cc2)cc1 [Compound 10, 2-Methyl-3-[(morpholin-4-yl)-methyl]-5-[4-(methyl)phenyl]-1-[4-(chloro)phenyl]-1H-pyrrole]	130 °C	25.7 min	97.69%	0.002	0.6 µM (≈ 0.229 µg/mL)	179 µM	1.3	4.4	4.78	25 µM	<0.5 mL/min/g	> 30 min	2.6 ± 0.1 mL/min/g	–
CO[C@H]1/C=C/O[C@@]2(C)Oc3c(C)c(O)c4c(O)c(c(/C=N/N5CCN(C)CC5)c(O)c4c3C2=O)NC(=O)/C(C)=C\C=C\[C@H](C)[C@H](O)[C@@H](C)[C@@H](O)[C@@H](C)[C@H](OC(C)=O)[C@@H]1C [Rifampin, reference compound]	–	–	–	–	–	207 µM	–	–	–	–	–	–	–	AUC(0-inf) (in vivo; 10.4 mg/kg): 102 µM·h; ED99 (dose that reduces 2 logs bacterial burden in the lungs of mice; 95% confidence interval in parenthesis) (H37Rv): 9.8 (9.0–11) mg/kg
Cc1c(CN2CCOCC2)cc(-c2ccc(Cl)cc2)n1-c1ccc(C(C)C)cc1 [Compound 17, 2-Methyl-3-[(morpholin-4-yl)-methyl]-5-[4-(chloro)phenyl]-1-[4-(i-propyl)phenyl]-1H-pyrrole]	113 °C	19.6 min	98.19%	< 0.001	0.9 µM (≈ 0.368 µg/mL)	175 µM	1.67	5.43	5.7	14.7 µM	0.5 ± 0 mL/min/g	> 30 min	3.8 ± 0.1 mL/min/g	–
CCc1ccc(-c2cc(CN3CCOCC3)c(C)n2-c2ccc(OC)cc2)cc1 [Compound 19, 2-Methyl-3-[(morpholin-4-yl)-methyl]-5-[4-(ethyl)phenyl]-1-[4-(methoxy)phenyl]-1H-pyrrole]	101 °C	< 5 min	96.65%	0.003	0.3 µM (≈ 0.117 µg/mL)	30 µM	1.21	3.99	4.5	5.7 µM	1.71 mL/min/g	> 30 min	9.45 mL/min/g	–
